System: Z33 G4 (radiolabeled) (DNA, G4) AAAGTGATGGTGGTGGGGGAAGGATTTTCGAAC
Experiment: EMSA, displacement of bound DHX36 protein
Conditions: 100 mM KCl, 10 mM NaCl, 3.3 mM MgCl2, 10 mM EDTA; K-Res buffer pH 7.8, 37 °C, no ATP; DHX36 (4 nM) displaced from 4 nM G4; poly(dI:dC) present

NCCOc1cc(C(=O)Nc2cc(OCCN)c3ccccc3n2)nc(C(=O)Nc2cc(OCCN)c3ccccc3n2)c1
IC50: 33 nM

— paper PMC4344499 (2015)
